According to ChEMBL document CHEMBL1201862, “PubChem BioAssay data set” (2004):
“And” between values parts separate entries of the source, which are not always exact repeats. Identical values can stand only once.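 Grown in 96-well plates, cells were treated for 48 hours with each compound at five concentrations. Insufficient inhibition: endpoint recorded as highest concentration tested. GI50 is the concentration that inhibits growth by half.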 The source made the active and inactive calls. No stated cut-off is given here; in the data, active = GI50 up to about 1.1 µM and inactive = higher.

Assays:
Assay in all cases: NCI tumour cell line growth inhibition, 48 h
RPMI-8226 = system: RPMI-8226
T47D = system: T47D
OVCAR-5 = system: OVCAR-5
TK-10 = system: TK-10
HOP-62 = system: HOP-62
HCT-116 = system: HCT-116
OVCAR-4 = system: OVCAR-4
CAKI-1 = system: CAKI-1
SK-MEL-5 = system: SK-MEL-5
MCF7 = system: MCF7
K562 = system: K562
HT-29 = system: HT-29
MDA-MB-231 = system: MDA-MB-231
RXF 393 = system: RXF 393
UO-31 = system: UO-31
NCI-H226 = system: NCI-H226
UACC-257 = system: UACC-257
CCRF-CEM = system: CCRF-CEM
LOX IMVI = system: LOX IMVI

Measured: GI50

CNC1=Nc2ccccc2C(=S)N2CSC[C@@H]12
inactive: RPMI-8226 > 100 µM | T47D > 100 µM | OVCAR-5 > 100 µM | TK-10 > 100 µM | HOP-62 > 100 µM | HCT-116 > 100 µM | OVCAR-4 > 100 µM | CAKI-1 > 100 µM | SK-MEL-5 > 100 µM | MCF7 > 100 µM | K562 > 100 µM | HT-29 > 100 µM | MDA-MB-231 > 100 µM | RXF 393 > 100 µM | UO-31 > 100 µM

CCCCN(CCCC)C1(c2cc3ccccc3s2)CCCCC1.[O-][Cl+3]([O-])([O-])O
inactive: NCI-H226 17.6 µM | T47D 16.2 µM | OVCAR-5 18.4 µM | TK-10 17.3 µM | UACC-257 18.1 µM | CCRF-CEM 12.1 µM | HOP-62 15.1 µM | HCT-116 10.8 µM | OVCAR-4 15.4 µM | CAKI-1 18.7 µM | SK-MEL-5 18.7 µM | MCF7 17.3 µM | K562 16.7 µM | HT-29 13.1 µM | MDA-MB-231 15.9 µM | LOX IMVI 13.9 µM | RXF 393 16.6 µM | UO-31 18.6 µM

COc1c(-c2ccccc2)nc2ccc(Oc3ccccc3)nn12
inactive: NCI-H226 29.7 µM | RPMI-8226 7.6 µM | OVCAR-5 > 77.3 µM | TK-10 > 100 µM | UACC-257 > 54.8 µM | CCRF-CEM 8.65 µM | HOP-62 > 100 µM | HCT-116 13.2 µM | OVCAR-4 > 36.3 µM | CAKI-1 > 68.4 µM | SK-MEL-5 33.2 µM | K562 14.6 µM | HT-29 37 µM | LOX IMVI > 72.9 µM | RXF 393 > 38.8 µM | UO-31 > 61.8 µM

C1CCN(c2nc(=[N+]3CCCCC3)ss2)CC1
inactive: NCI-H226 19.1 µM | RPMI-8226 > 100 µM | OVCAR-5 > 100 µM | TK-10 > 100 µM | UACC-257 > 100 µM | CCRF-CEM 43.7 µM | HOP-62 > 100 µM | HCT-116 > 100 µM | OVCAR-4 > 100 µM | CAKI-1 > 100 µM | SK-MEL-5 > 100 µM | K562 90.6 µM | HT-29 > 100 µM | LOX IMVI 41.1 µM | RXF 393 > 100 µM | UO-31 > 100 µM

COC(=O)[C@@H]1[C@H](O)[C@H](C)[C@H](O)[C@@](C)(O)/C=C\C=C(\C)C(=O)Nc2c(C)c(OC(C)=O)c3c(c2O)C(=O)C(C)=C2OCOC(=C23)/C(C)=C/[C@@](C)(O)[C@H](O)[C@@H](C)[C@H]1OC(C)=O
inactive: NCI-H226 > 100 µM and 94.2 µM | RPMI-8226 31.8 µM | OVCAR-5 > 66.8 µM | TK-10 > 66.8 µM | UACC-257 27.2 µM and 80.4 µM | CCRF-CEM 15.8 µM | HOP-62 40.5 µM | HCT-116 29.2 µM | OVCAR-4 55.6 µM | CAKI-1 93.8 µM | SK-MEL-5 24.5 µM | K562 23.4 µM | HT-29 38.5 µM and 56.6 µM | LOX IMVI 26.8 µM | RXF 393 62.7 µM | UO-31 25.9 µM

N=C(N)NCCCC(NC(=O)c1c2ccccc2nc2ccccc12)C(=O)O (stereo not given)
inactive: NCI-H226 > 100 µM | RPMI-8226 > 100 µM | OVCAR-5 > 100 µM | TK-10 > 100 µM | UACC-257 > 100 µM | CCRF-CEM > 100 µM | HOP-62 > 100 µM | HCT-116 > 100 µM | OVCAR-4 > 100 µM | CAKI-1 > 100 µM | SK-MEL-5 > 100 µM | MCF7 > 100 µM | K562 > 100 µM | HT-29 > 100 µM | MDA-MB-231 > 100 µM | LOX IMVI > 100 µM | UO-31 > 100 µM

CCOc1ccc(/N=N/c2c(-c3ccccc3)nn(C(=O)CC(=O)Nc3ccccc3Cl)c2-c2ccccc2)cc1
inactive: NCI-H226 65.9 µM | RPMI-8226 37.4 µM | OVCAR-5 > 100 µM | TK-10 74.6 µM | UACC-257 80.4 µM | CCRF-CEM 25.4 µM | HOP-62 93.8 µM | HCT-116 35.6 µM | OVCAR-4 47.4 µM | CAKI-1 23.4 µM | SK-MEL-5 44.6 µM | K562 30.2 µM | HT-29 33.7 µM | LOX IMVI 42.2 µM | RXF 393 34.2 µM | UO-31 28.9 µM

COc1cc(/C=C/c2cccnc2)cc(OC)c1OC
inactive: NCI-H226 > 100 µM | RPMI-8226 > 100 µM | OVCAR-5 58.9 µM | TK-10 58.6 µM | UACC-257 > 100 µM | CCRF-CEM > 100 µM | HOP-62 70.6 µM | HCT-116 > 100 µM | OVCAR-4 > 100 µM | CAKI-1 > 100 µM | SK-MEL-5 47.5 µM | K562 > 100 µM | HT-29 > 100 µM | LOX IMVI > 100 µM | RXF 393 > 100 µM | UO-31 36.5 µM

CC(NC(=O)c1ccccc1)C(=O)N(Cc1ccccc1)Cc1ccccc1 (stereo not given)
inactive: NCI-H226 23.4 µM | RPMI-8226 21 µM | OVCAR-5 33 µM | TK-10 60.1 µM | UACC-257 40.2 µM | CCRF-CEM 21.6 µM | HOP-62 25.1 µM | HCT-116 25.2 µM | OVCAR-4 31.2 µM | CAKI-1 34.9 µM | SK-MEL-5 22.5 µM | K562 15.3 µM | HT-29 37.1 µM | LOX IMVI 22.1 µM | RXF 393 26.5 µM | UO-31 27.5 µM

CCCCCCC(C)CCCCCCCCCCC(=O)O (stereo not given)
inactive: NCI-H226 > 100 µM | RPMI-8226 > 100 µM | OVCAR-5 > 100 µM | TK-10 > 100 µM | UACC-257 > 100 µM | CCRF-CEM > 100 µM | HOP-62 > 100 µM | HCT-116 93.5 µM | OVCAR-4 > 100 µM | CAKI-1 > 100 µM | SK-MEL-5 > 100 µM | K562 > 100 µM | HT-29 > 100 µM | LOX IMVI > 100 µM | RXF 393 > 100 µM | UO-31 > 100 µM

Cc1c/c(=N/NC(=O)c2ccncc2)n2nc(N)sc2n1
inactive: NCI-H226 > 100 µM | RPMI-8226 > 100 µM | OVCAR-5 > 100 µM | UACC-257 > 100 µM | CCRF-CEM > 100 µM | HOP-62 > 100 µM | HCT-116 > 100 µM | OVCAR-4 > 100 µM | CAKI-1 > 100 µM | SK-MEL-5 > 100 µM | MCF7 > 100 µM | K562 > 100 µM | HT-29 > 100 µM | MDA-MB-231 > 100 µM | LOX IMVI > 100 µM | RXF 393 > 100 µM | UO-31 > 100 µM

O=C1CCNC(=O)NC1
inactive: NCI-H226 > 100 µM | RPMI-8226 > 100 µM | OVCAR-5 > 100 µM | TK-10 > 100 µM | UACC-257 > 100 µM | CCRF-CEM > 100 µM | HOP-62 > 100 µM | HCT-116 > 100 µM | OVCAR-4 > 100 µM | CAKI-1 > 100 µM | SK-MEL-5 > 100 µM | K562 > 100 µM | HT-29 > 100 µM | LOX IMVI > 100 µM | RXF 393 > 100 µM | UO-31 > 100 µM
